Entries after “also recorded” stand apart in the source; their conditions may differ.
Key:
[1] = Phase 1 Parts 1 and 2 blood pressure pharmacodynamics / exposure-response; assay type: in vivo, human
Text: Where possible, systolic and diastolic BP measurements will be used to determine the change from baseline between each active treatment relative to that obtained on subjects receiving placebo within a study part. At each time point blood pressure data is collected, an individual subject's change from baseline will be calculated.

[2] = plasma protein binding, rat; assay type: in vitro ADME; details: in vitro
[3] = Phase 1 Part 2 (MAD) urinary PK; assay type: in vivo, human; details: for CLR,0-6 / CLR,6-12 / CLR,32-24 / CLR,144-150 / CLR,150-156 / CLR,156-168 / Cum % excreted0-168 / CumAe0-168: Part 2 MAD, geometric mean (CV%); for CumAe0-168: urine 0 to 168 hours
Protocol: (§1) Four sequential MAD cohorts were dosed.
Urine samples were collected according to the schedule in Tables 4 and 5 for Parts 1 and 2, respectively. The pre-dose sample on Day 1 was collected any time in the 2 hours prior to dosing. A 30-minute window was allowed around collection intervals.

[4] = Phase 1 Part 2 (MAD) plasma PK; assay type: in vivo, human; details: for Cmax / AUC0-24 / Tmax / AUCtau / Ctau / t1/2: Part 2 MAD; for Cmax / AUC0-24 / AUCtau / Ctau: geometric mean (CV%); for Tmax / t1/2: median (min, max)
Protocol: as §1
For each cohort of Part 2, the daily dose of study drug was administered as a single dose (1 time daily or QD). Similar to Part 1 of the study, following a screening period to determine eligibility, subjects in each cohort entered the CRU on the […] of Day −1. Study eligibility was re-confirmed upon admission to the CRU, and subjects remained in the CRU overnight prior to dosing on Day 1. Subjects received a final morning dose of study drug on the last day of dosing. Subjects were discharged from the CRU following sample collection on Day 11. Dosage administration was supervised by study personnel and all subjects completed dosing per protocol. […] Subjects returned to the CRU on Day 23 (+2 days) for final follow-up safety assessments.
Serial venous blood samples were withdrawn via an indwelling cannula or by venipuncture according to the schedule in Tables 4 and 5 for Parts 1 and 2, respectively. Samples were collected into 4 mL lithium heparin tubes. The acceptable deviations from the nominal blood sampling times in Part 1 and Part 2 are as follows: the pre-dose blood sample will be taken ≤1 hour before dosing; 0 to 1 hour post-dose samples will be taken within +2 minutes of the nominal post-dose sampling time; >1 to 12 hours post-dose samples will be taken within +10 minutes of the nominal post-dose sampling time; and >12 hours post-dose samples will be taken within +30 minutes of the nominal post-dose sampling time if subjects are resident in the clinic. […]
In all derivations of PK parameters, 0 will be substituted for concentrations below the quantification limit (BQL) of the assay. Samples that are BQL but are between 2 samples with detectable concentrations will be excluded from PK analysis.
Dose proportionality was evaluated over all fasted doses within a study part based upon AUC0-inf (Part 1), AUCtau (Part 2), AUC0-t, and Cmax using the power model. The analysis was performed for Day 1 (Parts 1 and 2) and Day 7 (Part 2).
Dose proportionality for PK parameters was assessed by restricted maximum likelihood using SAS PROC MIXED (SAS STAT software, Cary N.C.). The mean slope was estimated from the power model and the corresponding 90% confidence interval (CI) calculated. Dose proportionality was also examined using an analysis of variance (ANOVA) method, where PK parameters for each dose were compared with a reference dose on a pair-wise basis. The ratio of geometric least squares (GLS) means and the corresponding 90% CI was estimated for each PK parameter of interest.
Accumulation ratios were calculated using AUC values from serial sampling after the first and last dose in Part 2. […] A mixed-effects model with a fixed effect for day and a random subject effect was used to estimate the difference between AUCtau and AUC0-t on the log scale.
Time to steady-state was evaluated in Part 2 using Ctrough (observed plasma concentration immediately before dosing) levels, where sufficient samples existed to determine steady state. The following timepoints were used in the analysis for once daily dosing: 24, 48, and 72 hours post dose (for Day 1) and pre-dose and 24 hours post dose on the last day of dosing (Day 7).

HO bone formation = assay: mouse model of HO bone formation; assay type: in vivo; details: dosing for 21 days
[5] = plasma protein binding, dog; assay type: in vitro ADME; details: in vitro
CYP2E1 = CYP2E1 (Homo sapiens, UniProt P05181); assay: CYP inhibition in vitro; assay type: in vitro ADME
CYP2E1, sequence (P05181 whole entry): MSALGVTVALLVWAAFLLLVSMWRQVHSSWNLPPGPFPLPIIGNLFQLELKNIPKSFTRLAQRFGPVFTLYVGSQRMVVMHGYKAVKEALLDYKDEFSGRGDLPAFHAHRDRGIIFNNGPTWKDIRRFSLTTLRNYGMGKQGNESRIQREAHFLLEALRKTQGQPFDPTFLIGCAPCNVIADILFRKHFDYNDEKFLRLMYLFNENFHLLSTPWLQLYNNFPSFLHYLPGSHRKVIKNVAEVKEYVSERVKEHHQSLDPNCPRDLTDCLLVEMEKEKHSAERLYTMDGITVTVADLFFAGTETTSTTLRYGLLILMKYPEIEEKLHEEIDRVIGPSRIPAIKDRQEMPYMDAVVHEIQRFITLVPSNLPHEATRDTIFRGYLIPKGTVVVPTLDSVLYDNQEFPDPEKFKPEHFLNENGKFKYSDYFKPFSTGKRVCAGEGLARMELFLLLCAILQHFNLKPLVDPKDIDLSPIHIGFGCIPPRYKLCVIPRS

[6] = all cohorts and placebo subjects

Structure (SMILES): COc1cc(-n2cnc(Nc3nc(N4CCC[C@H]4C(N)=O)nc4sccc34)c2)cc(OC)c1OC.O=C(O)CC(O)(CC(=O)O)C(=O)O [Compound A]
- correlation of BP with dose or exposure ([1]; Parts 1 and 2): no meaningful correlation
- slope of Δ diastolic BP-concentration model [1, 6]: 0.00151
- slope of Δ systolic BP-concentration model [1, 6]: 0.00686
- plasma protein binding [2]: ≥ 99.9%
- cumulative amount of parent compound excreted in the urine ([3]; Part 2, 5 to 20 mg QD): less than 1%
- CLR,0-6 ([3]; 5 mg QD): 17.16 (90.4) mL/h
- CLR,6-12 ([3]; 5 mg QD): 11.11 (152.2) mL/h
- CLR,32-24 ([3]; 5 mg QD): 12.32 (83.5) mL/h
- CLR,144-150 ([3]; 5 mg QD): 22.90 (79.5) mL/h
- CLR,150-156 ([3]; 5 mg QD): 10.85 (144.3) mL/h
- CLR,156-168 ([3]; 5 mg QD): 10.66 (114.9) mL/h
- Cum % excreted0-168 ([3]; 5 mg QD): 0.2515 (114.5) %
- CumAe0-168 ([3]; 5 mg QD): 88,030 (114.5) ng
- CLR,0-6 ([3]; 10 mg QD): 9.850 (75.1) mL/h
- CLR,6-12 ([3]; 10 mg QD): 5.468 (73.0) mL/h
- CLR,32-24 ([3]; 10 mg QD): 5.694 (65.7) mL/h
- CLR,144-150 ([3]; 10 mg QD): 12.01 (64.4) mL/h
- CLR,150-156 ([3]; 10 mg QD): 4.787 (168.5) mL/h
- CLR,156-168 ([3]; 10 mg QD): 3.480 (152.2) mL/h
- Cum % excreted0-168 ([3]; 10 mg QD): 0.1209 (66.5) %
- CumAe0-168 ([3]; 10 mg QD): 84,600 (66.5) ng
- CLR,0-6 ([3]; 15 mg QD): 14.19 (131.3) mL/h
- CLR,6-12 ([3]; 15 mg QD): 7.172 (100.3) mL/h
- CLR,32-24 ([3]; 15 mg QD): 6.837 (92.5) mL/h
- CLR,144-150 ([3]; 15 mg QD): 11.49 (171.8) mL/h
- CLR,150-156 ([3]; 15 mg QD): 8.596 (123.2) mL/h
- CLR,156-168 ([3]; 15 mg QD): 6.846 (93.4) mL/h
- Cum % excreted0-168 ([3]; 15 mg QD): 0.1676 (89.5) %
- CumAe0-168 ([3]; 15 mg QD): 176,000 (89,5) ng
- CLR,0-6 ([3]; 20 mg QD): 13.36 (76.2) mL/h
- CLR,6-12 ([3]; 20 mg QD): 9.673 (64.5) mL/h
- CLR,32-24 ([3]; 20 mg QD): 7.595 (39.1) mL/h
- CLR,144-150 ([3]; 20 mg QD): 15.28 (85.8) mL/h
- CLR,150-156 ([3]; 20 mg QD): 7.978 (54.7) mL/h
- CLR,156-168 ([3]; 20 mg QD): 4.674 (146.4) mL/h
- Cum % excreted0-168 ([3]; 20 mg QD): 0.1705 (47.2) %
- CumAe0-168 ([3]; 20 mg QD): 238,600 (47.2) ng
- Day 1 AUC0-24, geometric least square mean ([4]; 5 mg QD): 797.89 ng·h/mL
- Day 7 AUCtau, geometric least square mean ([4]; 5 mg QD): 915.48 ng·h/mL
- Day 1 AUC0-24, geometric least square mean ([4]; 10 mg QD): 1703.36 ng·h/mL
- Day 7 AUCtau, geometric least square mean ([4]; 10 mg QD): 2022.93 ng·h/mL
- Day 1 AUC0-24, geometric least square mean ([4]; 15 mg QD): 2204.47 ng·h/mL
- Day 7 AUCtau, geometric least square mean ([4]; 15 mg QD): 2303.26 ng·h/mL
- Day 1 AUC0-24, geometric least square mean ([4]; 20 mg QD): 3159.74 ng·h/mL
- Day 7 AUCtau, geometric least square mean ([4]; 20 mg QD): 3184.88 ng·h/mL
- median Tmax ([4]; Part 2, Days 1 and 7, all dosing cohorts): approximately 2.0 hours
- time to steady state ([4]; Part 2, QD dosing, from trough concentrations): ≤ 3 days
- accumulation ([4]; Part 2, each MAD cohort, 7 days QD): No accumulation or minimal accumulation
- dose proportionality of plasma exposure ([4]; Part 2, multiple oral doses 5 to 20 mg, healthy subjects): exhibits dose proportionality; also recorded: approximately linear and dose proportional
- Cmax ([4]; Day 1, 5 mg QD oral, fasted): 105.0 (45.9) ng/ml
- AUC0-24 ([4]; Day 1, 5 mg QD): 797.9 (37.8) ng · h/mL
- Tmax ([4]; Day 1, 5 mg QD): 2.009 (1.01, 4.01) h
- Cmax ([4]; Day 1, 10 mg QD oral, fasted): 217.0 (46.2) ng/ml
- AUC0-24 ([4]; Day 1, 10 mg QD): 1703 (37.4) ng · h/mL
- Tmax ([4]; Day 1, 10 mg QD): 2.009 (2.01, 3.01) h
- Cmax ([4]; Day 1, 15 mg QD oral, fasted): 324.2 (34.9) ng/ml
- AUC0-24 ([4]; Day 1, 15 mg QD): 2204 (39.0) ng · h/mL
- Tmax ([4]; Day 1, 15 mg QD): 2.006 (1.01, 4.00) h
- Cmax ([4]; Day 1, 20 mg QD oral, fasted): 464.1 (26.1) ng/ml
- AUC0-24 ([4]; Day 1, 20 mg QD): 3160 (21.2) ng · h/mL
- Tmax ([4]; Day 1, 20 mg QD): 2.007 (2.00, 3.00) h
- AUCtau ([4]; Day 7, 5 mg QD): 915.5 (40.7) ng · h/mL
- Cmax ([4]; Day 7, 5 mg QD): 117.0 (44.4) ng/ml
- Ctau ([4]; Day 7, 5 mg QD): 10.70 (72.6) ng/ml
- Tmax ([4]; Day 7, 5 mg QD): 2.007 (1.01, 3.03) h
- t1/2 ([4]; Day 7, 5 mg QD): 8,846 (4.73, 25.1) h
- AUCtau ([4]; Day 7, 10 mg QD): 2023 (29.7) ng · h/mL
- Cmax ([4]; Day 7, 10 mg QD): 238.0 (22.6) ng/ml
- Ctau ([4]; Day 7, 10 mg QD): 25.47 (68.1) ng/ml
- Tmax ([4]; Day 7, 10 mg QD): 2.021 (2.01, 3.01) h
- t1/2 ([4]; Day 7, 10 mg QD): 8.512 (6.09, 12.3) h
- AUCtau ([4]; Day 7, 15 mg QD): 2303 (24.9) ng · h/mL
- Cmax ([4]; Day 7, 15 mg QD): 333.5 (29.7) ng/ml
- Ctau ([4]; Day 7, 15 mg QD): 19.02 (59.6) ng/ml
- Tmax ([4]; Day 7, 15 mg QD): 2.006 (1,01, 3.00) h
- t1/2 ([4]; Day 7, 15 mg QD): 7.534 (4.05, 12.2) h
- AUCtau ([4]; Day 7, 20 mg QD): 3185 (24.4) ng · h/mL
- Cmax ([4]; Day 7, 20 mg QD): 413.9 (14.9) ng/ml
- Ctau ([4]; Day 7, 20 mg QD): 30.75 (66.5) ng/ml
- Tmax ([4]; Day 7, 20 mg QD): 2.001 (1.00, 3.00) h
- t1/2 ([4]; Day 7, 20 mg QD): 8.332 (4.61, 11.0) h
- dose proportionality of steady state Cmax ([4]; Part 2 multiple ascending oral dose cohorts (FIG. 7)): approximately linear and dose-proportional
- dose proportionality of steady state AUCtau ([4]; Part 2 multiple ascending oral dose cohorts (FIG. 8)): approximately linear and dose-proportional
- new HO bone formation (HO bone formation): significant reduction in new HO bone formation
- plasma protein binding [5]: ≥ 99.9%
- CYP2E1 inhibition (CYP2E1): not an inhibitor

Reference: patent US20240408096A1, “DOSING REGIMENS FOR ORAL ALK2 KINASE INHIBITORS” (BioCryst Pharmaceuticals, Inc., priority 2020, published 2024)
